Measurements: patent US10822376B2, “Biologically active peptides” (Baxalta Incorporated, priority 2008, dated 2020)
Values after ≈ are worked out from the molar mass of the structure shown. *1 amine or outer side, *2 acyl side, *3 side chain or, on linkers, in order; H or OH if unused. Where a SMILES comes first, the peptide text is derived from it. Bridges are numbered along the chain shown (N, C = ends). [ ]: non-standard residue; d: D form. The star is where a group is joined. X2 = NCCCC[C@H](N)C(=O)NCCCOCCOCCOCCCN*; Suc = O=C(CCC(=O)[*:2])[*:1]; X3 = CC(=O)NCCCOCCOCCOCCCN*

What was measured:
[1] = physchem; settings: for solubility kinetic: pH 7.4
[2] = Plasma stability; settings: human
Experimental: Half-life of compounds in human or mouse plasma, or percentage of compound remaining after an incubation in human or mouse plasma, is determined as follows. In the experimental procedure, test compound concentrations are 5 μM, prepared from test compound stock solutions of 10 mM in DMSO. Propantheline is used as a standard. […] All of the samples are incubated in a water bath at 37° C. […] After a chosen duration of incubation (generally at t=60 min) each sample is mixed with a further 500 μl acetonitrile. The samples are mixed on a vortex mixer for 30 s and placed on ice for 10 min and collected for centrifugation. Samples are centrifuged at 20 000 g for 10 min at 4° C. 500 μl supernatant is transferred into a new 1.5 ml Eppendorf tube and an equal volume of acetonitrile is added. The sample is mixed again for 30 s using a vortex mixer. After a second centrifugation step (20 000 g, 10 min, 4° C.) 250 μl of the supernatant is transferred into HPLC glass vials for HPLC-MS analysis. Conditions for performing HPLC are as follows: Injection-volume is set to 20 μl. Temperature is set to 25° C. A linear gradient from 95:5 to 5:95 water:acetonitrile both containing 0:05% trifluoroacetic acid (TFA) (v/v) is applied at a flow rate of 0.3 ml/min for 10 min. The PDA-detector is scanning from 210-400 nm.

[3] = tested on: human FVIII inhibited plasma; assay: Defined Intrinsic Thrombin Generation Assay (DITGA, triggered by FXIa and phospholipids); format: biochemical; settings: for Activity in the Defined Intrinsic Thrombin Generation Assay: summary
From the text: (§1) The intrinsic pathway of thrombin generation may be assayed in a thrombin generation assay by including FXIa and phospholipids. In such an assay, which is similar to an activated partial thromboplastin time (aPTT) test, thrombin generation is solely directed through the intrinsic pathway, and is FVIII dependent. A suitable assay is the Defined Intrinsic Thrombin Generation Assay described below. Alternatively, by employing low concentrations of TF and phospholipids instead of FXIa and phospholipids, thrombin is generated by both the extrinsic (tissue factor) and the intrinsic pathways. This form of the thrombin generation assay is the more physiologic one, as both thrombin generation pathways are involved; it is partially FVIII dependent. A suitable assay is the Defined Dual-Pathway Thrombin Generation Assay.
The Defined Intrinsic Thrombin Generation Assay is performed as follows. FVIII activity of human plasma is inhibited by incubating (2 hours, 37° C.) 40 μl of human normal plasma with 10 μl heat inactivated anti-human FVIII plasma raised in goat (600 BU/ml, 6 hours incubated at 56° C.). […] Instead of FVIII-inhibited plasma, FVIII inhibitor patient plasma or several depleted plasmas can be used. The micro-plate is immediately put into a GENios Plus (Tecan) or Safire 2 (Tecan) fluorescence reader and the fluorescence signal (ex 340 nm/em 440 nm) is followed kinetically by reading the plate every 21 seconds.
For calculation of activity equivalent units experiments are performed with dilutions of Factor Eight Inhibitor Bypassing Agent (FEIBA, Baxter AG), Immunate (human FVIII, purified plasma derived) reference standard (Baxter AG) or Recombinate standard (human FVIII, purified recombinant, Baxter AG). A linear fit of the logarithm of FEIBA (FVIII) concentration plotted against thrombin generation time at peak thrombin results in a standard curve. With this curve FEIBA (FVIII) equivalent activity is calculated for a defined peptide concentration. […] Thus, where a concentration of 100 μM is given, the actual concentration in the final assay volume in 40 μM.
Compounds were screened using the “Defined intrinsic thrombin generation assay” in which thrombin generation was quantified in vitro in FVIII-inhibited human plasma in the presence of Factor XIa and phospholipid vesicles. Further compounds were screened in the above assay, and in the “Defined dual-pathway thrombin generation assay” using tissue factor and phospholipids instead of Factor XIa and phospholipids, as described in the specific description.
Various concentrations of each peptide were tested in the defined intrinsic thrombin generation assay using human FVIII inhibited plasma.

[4] = tested on: Factor XI deficient human plasma; assay: DDPTGA (reagent B) in FXI depleted plasma; settings: compounds at 50 μM and 80, 90 or 100 μM
Experimental: (§5) The Defined Dual-Pathway Thrombin Generation Assay is performed as described below, using a commercial test kit (Technothrombin TGA, Technoclone GmbH, Vienna, Austria). […] USA) are incubated four minutes at 37° C. Preferably, Reagent C high is used. Thrombin generation is started by the addition of 40 μl of one of several types of human plasma (37° C.). […] By deviating the original fluorescence data the amount of generated thrombin is calculated from a standard curve constructed using a concentration range of thrombin.
(§6) The in vitro thrombin generation assay based on the cleavage of Z-GGR-AMC to release the fluorophore AMC, described in the specific description, i.e. the Defined Dual-Pathway Thrombin Generation Assay was used to characterise the effect of the compounds in several depleted human plasmas. […] 10 μl peptide dilution, 40 μl TGA substrate and 40 μl plasma were used as described in the specific description.
(§7) The plasmas used in the experiments were fresh frozen and were deficient in Factor V, Factor VII/VIIa, Factor VIII, Factor X or Factor XI (George King Bio-Medical, Inc.). Residual coagulation factor levels of deficient plasmas were specified as less than 1%.
(§8) For each depleted plasma used in the experiments, compounds were tested at two concentrations, namely 50 μM and 80, 90 or 100 μM. A negative control was used, in which no test compound was included.

[5] = tested on: FVIII-inhibited human normal plasma; assay: Defined Fibrin Deposition Assay (clotting time); format: biochemical
Experimental: Another suitable assay to determine procoagulant activity, and particularly FVIII equivalent activity or FVIII inhibitor bypassing activity, is the Defined Fibrin Deposition Assay as described below. […] This assay is particularly useful for determining coagulation FVIII activity because it is conducted in the presence of FVIII-depleted or inhibited plasma.
The Defined Fibrin Deposition Assay is performed as follows. FVIII activity of human citrated plasma (Baxter AG) is first inhibited by incubating (2 hours, 37° C.) 100 μl of human normal plasma with 25 μl heat inactivated anti-human FVIII plasma (300 BU/ml, 6 hours incubated at 56° C.) raised in goat. For each sample to be tested, 125 μl of this FVIII-inhibited human normal plasma is transferred to a pre-warmed cuvette and a 75 μl dilution of a test compound or FEIBA reference standard (Baxter AG) is added. The dilutions of test compound or FEIBA reference standard contain 50 mM imidazole, 100 mM NaCl and 10 mg/ml human serum albumin (Sigma) pH 7.4. As a trigger and for providing procoagulant surfaces 100 μl of a mix of human factor XIa (3.13 nM, Enzyme Research Laboratories) and phospholipid (PL) vesicles (Phosphatidylcholine/Phosphatidylserine 60%/40%, 30 μM; Avanti Polar Lipids) in 50 mM Imidazole, 100 mM NaCl, 10 mg/ml human serum albumin (Sigma) pH 7.4 is included. After incubating for three minutes at 37° C. the coagulation reaction is started by adding 100 μl of 25 mM CaCl2. Clot formation is monitored by a coagulometer (KC10A, Amelung, Germany). In brief, each cuvette rotates slowly above the magnetic detection device and contains a small magnetic metallic ball. Whilst the plasma components remain in solution, the ball sits at the bottom of the cuvette. Over time, a clot begins to form, such that the ball starts to rotate with the developing clot in the rotating cuvette. The “clotting time” is recorded and is defined as the time from addition of the CaCl2) to the time that the developing clot begins to rotate the metallic ball. A standard curve for FEIBA reference standard dilutions is calculated by linear regression of logarithmic FEIBA concentrations (x-axis) against the clotting time (y-axis). Based on the clotting time of each compound concentration FEIBA equivalent activities are calculated according to this standard curve.
Thus, where a concentration of 100 μM is given, the actual concentration in the final assay volume in 25 μM.
Various peptides were tested for the ability to stimulate fibrin deposition in the Defined Fibrin Deposition Assay as described in the specific description.

[6] = tested on: FVIII deficient plasma; assay: Defined Dual-Pathway Thrombin Generation Assay (DDPTGA, reagent C high), FVIII deficient plasma; format: biochemical, human; settings: FVIII deficient plasma
From the text: as §1
(§2) Preferably, Reagent C high is used.
(§3) Tissue factor dependency of peak thrombin generation and thrombin peak time was characterised in a composition containing a fixed concentration of phospholipid (namely 3.2 μM). Phospholipid dependency was characterised in a composition containing a fixed concentration of tissue factor (namely 7.2 μM). Peak time (time to peak thrombin generation) was dependent on the concentration of phospholipid or tissue factor. The final version of this assay is as described in the specific description, in which 10 μl reagent C high containing (32 μM phospholipid and 71.6 μM tissue factor) is used in a total volume of 100 μl.
(§4) Further studies were conducted using 3.2 μM phospholipid and 7.2 μM tissue factor in FVIII deficient or inhibited plasma, to characterise the effect on peak thrombin generation and thrombin peak time of various coagulation factor preparations. These studies provided a basis from which to compare the efficacy of the compounds in the assay. Briefly, rFVIII (Recombinate® FVIII from Baxter) was tested at 0, 5, 10, 20, 40 and 80 mU/ml in FVIII deficient plasma. FEIBA was tested at 0, 8, 16, 31, 63 and 125 mU/ml in FVIII inhibited plasma. FVIIa was tested at 0, 0.1, 0.4, 1.6, 6.3 and 25 nM in FVIII inhibited plasma. […] Peak thrombin increased and both the lag time and the thrombin peak time decrease.

[7] = tested on: FVIII inhibited plasma; assay: Defined Dual-Pathway Thrombin Generation Assay (DDPTGA, reagent C high), FVIII inhibited plasma; format: biochemical, human; settings: for Peak IIa FEIBA EU / Peak IIa FVIIa EU / Peak Time FEIBA EU / Peak Time FVIIa EU: FVIII inhibited plasma
From the text: as §1, §2, §3, §4

[8] = tested on: Factor VIII deficient human plasma; assay: DDPTGA (reagent B) in FVIII depleted plasma; format: biochemical; settings: compounds at 50 μM and 80, 90 or 100 μM; further: key: '+' means stimulates; '−' means does not stimulate
From the text: as §2

[9] = tested on: Factor V deficient human plasma; assay: DDPTGA (reagent B) in FV depleted plasma; settings: compounds at 50 μM and 80, 90 or 100 μM
Experimental: as §5, §6, §7, §8

[10] = tested on: Factor VII/VIIa deficient human plasma; assay: DDPTGA (reagent B) in FVII depleted plasma; settings: compounds at 50 μM and 80, 90 or 100 μM
Experimental: as §5, §6, §7, §8

[11] = tested on: Factor X deficient human plasma; assay: DDPTGA (reagent B) in FX depleted plasma; settings: compounds at 50 μM and 80, 90 or 100 μM
Experimental: as §5, §6, §7, §8

[12] = tested on: FIX−/− mice; assay: Tail clip assay in FIX−/− mice (blood loss, survival); format: in vivo, mouse; settings: for Survival (%) 2 hours / Survival (%) 4 hours / Survival (%) 24 hours / Survival (%) 48 hours: FIX−/− mice, tail clip

## CSCC[C@H]1NC(=O)[C@@H](Cc2ccc(O)cc2)NC(=O)[C@H](NC(=O)CCC(=O)NCCCOCCOCCOCCCNC(C)=O)CSSC[C@H](C(=O)N[C@H](Cc2ccc(O)cc2)C(=O)N[C@H](CCC(=O)O)C(N)=O)NC(=O)[C@@H](CC(=O)O)NC(=O)[C@@H](Cc2ccc(O)cc2)NC(=O)[C@@H](Cc2c[nH]c3ccccc23)NC(=O)[C@@H](Cc2ccccc2)NC1=O [Peptide B05, Ac-TTDS-(cymfwydc)-ye-NH2] ({X3-Suc}-[dC][dY][dM][dF][dW][dY][dD][dC][dY][dE]-NH2; disulfide 1-8)
[1]
  solubility kinetic: 174 µM (≈ 307 µg/mL)
[2]
  remaining at 0.5 h, 5 μM: 112%
[3]; peptide 12.5 μM
  Thrombin peak time given as FEIBA equivalent activity: 126 mU/ml
[3]; peptide 25 μM
  Thrombin peak time given as FEIBA equivalent activity: 152 mU/ml
[3]; peptide 50 μM
  Thrombin peak time given as FEIBA equivalent activity: 270 mU/ml
[3]; peptide 100 μM
  Thrombin peak time given as FEIBA equivalent activity: 649 mU/ml
[3]; peptide 200 μM
  Thrombin peak time given as FEIBA equivalent activity: 1089 mU/ml
[3]
  Activity in the Defined Intrinsic Thrombin Generation Assay: possess activity

## CSCC[C@H]1NC(=O)[C@@H](Cc2ccc(O)cc2)NC(=O)[C@H](NC(=O)CCC(=O)NCCCOCCOCCOCCCNC(=O)[C@@H](N)CCCCN)CSSC[C@H](C(=O)N[C@H](Cc2ccc(O)cc2)C(=O)N[C@H](CCC(=O)O)C(N)=O)NC(=O)[C@@H](CC(=O)O)NC(=O)[C@@H](Cc2ccc(O)cc2)NC(=O)[C@@H](Cc2c[nH]c3ccccc23)NC(=O)[C@@H](Cc2ccccc2)NC1=O [Peptide B06, K-TTDS-(cymfwydc)-ye-NH2] ({X2-Suc}-[dC][dY][dM][dF][dW][dY][dD][dC][dY][dE]-NH2; disulfide 1-8)
[1]
  solubility kinetic: 48 µM (≈ 88.8 µg/mL)
[1]; pH 7.4, Solubility in PBS pH 7.4
  solubility: ≥ 25 µM
[2]
  remaining at 0.5 h, 5 μM: 93%
[3]; peptide 12.5 μM
  Thrombin peak time given as FEIBA equivalent activity: 95 mU/ml
[3]; peptide 25 μM
  Thrombin peak time given as FEIBA equivalent activity: 157 mU/ml
[3]; peptide 50 μM
  Thrombin peak time given as FEIBA equivalent activity: 172 mU/ml
[3]; peptide 100 μM
  Thrombin peak time given as FEIBA equivalent activity: 378 mU/ml
[3]; peptide 200 μM
  Thrombin peak time given as FEIBA equivalent activity: 902 mU/ml
[3]
  Activity in the Defined Intrinsic Thrombin Generation Assay: possess activity

## Ac-WDLYFEIVW-ttds-E [Peptide A07]
[4]
  Stimulation of thrombin generation: +
[5]; compound 12.5 μM
  FEIBA EU (from clotting time): 268 mU/ml
[5]; compound 25 μM
  FEIBA EU (from clotting time): 246 mU/ml
[5]; compound 50 μM
  FEIBA EU (from clotting time): 199 mU/ml
[5]; summary
  Activity in the Defined Fibrin Deposition Assay: possess activity
[6]; peptide 50 μM
  Peak IIa FVIII EU: BLS (BLS = below lowest standard.)
  Peak Time FVIII EU: BLS (BLS = below lowest standard.)
[6]; peptide 100 μM
  Peak IIa FVIII EU: BLS (BLS = below lowest standard.)
  Peak Time FVIII EU: BLS (BLS = below lowest standard.)
[7]; peptide 50 μM
  Peak IIa FEIBA EU: BLS (BLS = below lowest standard.)
  Peak IIa FVIIa EU: BLS (BLS = below lowest standard.)
  Peak Time FEIBA EU: BLS (BLS = below lowest standard.)
  Peak Time FVIIa EU: BLS (BLS = below lowest standard.)
[7]; peptide 100 μM
  Peak IIa FEIBA EU: BLS (BLS = below lowest standard.)
  Peak IIa FVIIa EU: 0.1 nM
  Peak Time FEIBA EU: BLS (BLS = below lowest standard.)
  Peak Time FVIIa EU: BLS (BLS = below lowest standard.)
[7]; summary, FVIII inhibited or deficient plasma
  Activity in the Defined Dual-Pathway Thrombin Generation Assay: possess activity
[8]
  Stimulation of thrombin generation: +
[3]; peptide 6.25 μM
  Thrombin peak time given as FEIBA equivalent activity: 415 mU/ml
[3]; peptide 12.5 μM
  Thrombin peak time given as FEIBA equivalent activity: 585 mU/ml
[3]; peptide 25 μM
  Thrombin peak time given as FEIBA equivalent activity: 750 mU/ml
[3]; peptide 50 μM
  Thrombin peak time given as FEIBA equivalent activity: 965 mU/ml
[3]; peptide 100 μM
  Thrombin peak time given as FEIBA equivalent activity: 1129 mU/ml
[3]
  Activity in the Defined Intrinsic Thrombin Generation Assay: possess activity
[9]
  Stimulation of thrombin generation: −
[10]
  Stimulation of thrombin generation: +
[11]
  Stimulation of thrombin generation: +

## Immunine: purified plasma FIX preparation (Baxter AG. Austria)
[12]; 50, 100 or 200 U/kg i.v.
  Blood loss over the 62 minutes after tail clip: dose-dependent reduction
[12]; 50-200 U/kg
  Bleeding parameters and survival: dose dependently improves
[12]; 50 U/kg i.v.
  Survival (%) 2 hours: 94%
  Survival (%) 4 hours: 69%
  Survival (%) 24 hours: 63%
  Survival (%) 48 hours: 63%
[12]; 100 U/kg i.v.
  Survival (%) 2 hours: 100%
  Survival (%) 4 hours: 100%
  Survival (%) 24 hours: 94%
  Survival (%) 48 hours: 94%
[12]; 200 U/kg i.v.
  Survival (%) 2 hours: 100%
  Survival (%) 4 hours: 100%
  Survival (%) 24 hours: 100%
  Survival (%) 48 hours: 100%
